Measurements taken from patent publication US20090098096A1, “AGENT FOR CORRECTING STRESS-INDUCING NEURO-MEDIATOR, NEURO-ENDOCRINE AND METABOLIC DISTURBANCES AND METHOD FOR PREVENTING AND TREATING CONCOMITANT PATHOLOGICAL CONDITIONS” (priority 2005, published 2009).
Where no end group is shown, it is not given here.

Key:
[1] = tested on: mitochondrial respiratory chain; experiment: mitochondrial respiratory chain and oxidative phosphorylation on rat brain preparations; type: biochemical
Text: DSIP and its related peptides play a unique role in the maintenance of the structural-metabolic homeostasis not only on the level of different organs and tissues but also on the sub-cellular level of the organism. […] Such a decrease of rigidity of biological membranes enables the normalization of membrane functions, that have been disturbed by manifestations of the metabolic syndrome, such as hypertonic disease, hyperinsulinemia, misbalance of the endocrinal system, aging, etc.

[2] = tested on: antioxidant systems of the liver, the brain and the blood; conditions: under normal and under stress conditions; cited from earlier work
GABAA-receptor complex = experiment: pharmacological profiling on convulsive and comatose models; set-up: species or system mice; conditions: mouse, in vivo
Text: Particularly, the evaluation of the GABA-effecting component in the mechanism of action of the peptidic composition “Deltaran” based on FDSIP has been performed using the “pharmacological profiling” method in animals (mice). […] Also evidence has been found for a modulation of the barbiturate binding site of the GABA-benzodiazepine-ionophore-receptor complex by Deltaran and DSIP and data have been obtained concerning regulatory effect on chloride ionophore. The regulatory influences are probably realized via the peptide fragment of the GABA-benzodiazepine-ionophore-receptor complex (15).

[3] = tested on: lipids of various biological membranes (synaptosome, mitochondrial, erythrocyte and other); experiment: peroxidation of lipids of biological membranes; type: biochemical; conditions: by modulation of the activity of antioxidant enzymes
Text: The direct effect of the peptide on different cell membrane types was shown which may provide an additional normalizing cell functions effect. Particularly FDSIP may provide a stabilizing effect to the mitochondrial cell apparatus that also is capable of reducing cell damage by normalizing the cell respiration processes, which has been shown by us in experiments.

[4] = tested on: plasma membranes of human blood cells (erythrocytes and thrombocytes) and synaptosomal membranes (mice brain); conditions: on the surface and internal non-polar region; cited from earlier work

WAGGDASGE [DSIP, endogenous nonapeptide, delta-sleep inducing peptide]
efficacy of the oxidative phosphorylation [1]: significant increase | capacity of the antioxidant systems of the liver, the brain and the blood [2]: credibly increases | barbiturate binding site of the GABA-benzodiazepine-ionophore-receptor complex (GABAA-receptor complex): modulation | action on the peroxidation of lipids of various biological membranes [3]: inhibitory and preventive action | mobility of structural membrane domains [4]: increased mobility
